Measurements: US20240277767A1, “METHODS AND USES” (PROLEUKOCYTE AB, priority 2021, published 2024)

Legend:
[1] = tested on: tumour infiltrating lymphocytes (TIL); assay: IFNγ release by pre-treated TIL on autologous tumour cells after H2O2 treatment; format: cell-based, human; settings: KADA and ANRU melanoma TIL, E:T 4:1, vs control group
Description: ., 2020). […] For Nrf2 inhibition, NK cells were treated with 50 μM ML-385 (Sigma-Aldrich) in parallel. […] Cells were washed with medium and then used for further experiments. For monocyte experiments, autologous NK cell-monocytes or TIL-monocytes were used. […] Stimulated monocytes were activated with 100 ng/ml PMA for 1 min, washed and added at indicated ratio, the number of NK cell/TIL was kept constant. […] For cytokine release assay, NK cells and TIL were cultured with indicated tumour cells at the effector target ratio 4:1 (E:T) for 24 h in U-bottom plates. IFNγ secretion was measured using human IFN-γ ELISA development kit (Mabtech) following the manufacturer's instructions.

[2] = tested on: Nrf2 target genes (NQO1, HMOX1, TXNRD1, Keap1); assay: qPCR of classical Nrf2 target genes in TIL; format: cell-based, human
Description: Lymphocytes were pre-treated with AUF, SUL or DMF as described above. RNA was isolated using TRIzol™ Plus RNA Purification Kit (Invitrogen). cDNA was generated using the iScript™ cDNA Synthesis Kit (Bio-Rad) and qPCR was done using iTaq™ Universal SYBR® Green Supermix (Bio-Rad) in the CFX96 Touch Real-Time PCR Detection System (Bio-Rad). Fold change expression from untreated cells was calculated using the 2^-ΔΔCt formula with b-actin as reference gene. Evaluated genes were NAD(P)H Quinone Dehydrogenase 1 (NQO1), Kelch Like ECH Associated Protein 1 (Keap1), Heme Oxygenase 1 (HMOX1) and Thioredoxin Reductase 1 (TXNRD1).

CC(=O)OC[C@H]1O[C@@H]([S-])[C@H](OC(C)=O)[C@@H](OC(C)=O)[C@@H]1OC(C)=O.CCP(CC)CC.[Au+] [AUF, Auranofin]
Recognition of autologous tumour cells by TIL (IFNγ production) upon exposure to H2O2 [1]: increased recognition of their autologous tumour cells
Time of HMOX1 expression peak in TIL [2]: 3 h
Activation of Nrf2 target genes in TIL ([2]; TIL from three melanoma patients KADA, ANRU, BEHA): robust activation
